Molecular target: T1, full-length ATR (Homo sapiens, UniProt Q13535)
T1 construct: Assays were carried out at 25° C. in the presence of 5 nM full-length ATR
Assay: ATR Inhibition Assay (radioactive-phosphate incorporation)
Type: biochemical
Conditions: for Ki: Ki(app), 10 μM ATP, 800 μM target peptide, 5 nM full-length ATR, 25° C.; for inhibition at 15 µM: at 15 uM compound
Procedure: Compounds were screened for their ability to inhibit ATR kinase using a radioactive-phosphate incorporation assay. Assays were carried out in a mixture of 50 mM Tris/HCl (pH 7.5), 10 mM MgCl2 and 1 mM DTT. Final substrate concentrations were 10 μM [γ-33P]ATP (3 mCi 33P ATP/mmol ATP, Perkin Elmer) and 800 μM target peptide ([…] (SEQ. ID NO: 1)).
Assays were carried out at 25° C. in the presence of 5 nM full-length ATR. An assay stock buffer solution was prepared containing all of the reagents listed above, with the exception of ATP and the test compound of interest. 13.5 μL of the stock solution was placed in a 96 well plate followed by addition of 2 μL of DMSO stock containing serial dilutions of the test compound (typically starting from a final concentration of 15 μM with 3-fold serial dilutions) in duplicate (final DMSO concentration 7%). The plate was pre-incubated for 10 minutes at 25° C. and the reaction initiated by addition of 15 μL [γ-33P]ATP (final concentration 10 μM).
The reaction was stopped after 24 hours by the addition of 30 μL 0.1M phosphoric acid containing 2 mM ATP. A multiscreen phosphocellulose filter 96-well plate (Millipore, Cat no. MAPHN0B50) was pretreated with 100 μL 0.2M phosphoric acid prior to the addition of 45 μL of the stopped assay mixture. The plate was washed with […] 0.2M phosphoric acid. After drying, 100 μL Optiphase ‘SuperMix’ liquid scintillation cocktail (Perkin Elmer) was added to the well prior to scintillation counting (1450 Microbeta Liquid Scintillation Counter, Wallac).
After removing mean background values for all of the data points, Ki(app) data were calculated from non-linear regression analysis of the initial rate data using the Prism software package (GraphPad Prism version 3.0cx for Macintosh, GraphPad Software, San Diego Calif., USA).

[1] = read-out: percent inhibition against ATR

T1 sequence (Q13535 whole entry): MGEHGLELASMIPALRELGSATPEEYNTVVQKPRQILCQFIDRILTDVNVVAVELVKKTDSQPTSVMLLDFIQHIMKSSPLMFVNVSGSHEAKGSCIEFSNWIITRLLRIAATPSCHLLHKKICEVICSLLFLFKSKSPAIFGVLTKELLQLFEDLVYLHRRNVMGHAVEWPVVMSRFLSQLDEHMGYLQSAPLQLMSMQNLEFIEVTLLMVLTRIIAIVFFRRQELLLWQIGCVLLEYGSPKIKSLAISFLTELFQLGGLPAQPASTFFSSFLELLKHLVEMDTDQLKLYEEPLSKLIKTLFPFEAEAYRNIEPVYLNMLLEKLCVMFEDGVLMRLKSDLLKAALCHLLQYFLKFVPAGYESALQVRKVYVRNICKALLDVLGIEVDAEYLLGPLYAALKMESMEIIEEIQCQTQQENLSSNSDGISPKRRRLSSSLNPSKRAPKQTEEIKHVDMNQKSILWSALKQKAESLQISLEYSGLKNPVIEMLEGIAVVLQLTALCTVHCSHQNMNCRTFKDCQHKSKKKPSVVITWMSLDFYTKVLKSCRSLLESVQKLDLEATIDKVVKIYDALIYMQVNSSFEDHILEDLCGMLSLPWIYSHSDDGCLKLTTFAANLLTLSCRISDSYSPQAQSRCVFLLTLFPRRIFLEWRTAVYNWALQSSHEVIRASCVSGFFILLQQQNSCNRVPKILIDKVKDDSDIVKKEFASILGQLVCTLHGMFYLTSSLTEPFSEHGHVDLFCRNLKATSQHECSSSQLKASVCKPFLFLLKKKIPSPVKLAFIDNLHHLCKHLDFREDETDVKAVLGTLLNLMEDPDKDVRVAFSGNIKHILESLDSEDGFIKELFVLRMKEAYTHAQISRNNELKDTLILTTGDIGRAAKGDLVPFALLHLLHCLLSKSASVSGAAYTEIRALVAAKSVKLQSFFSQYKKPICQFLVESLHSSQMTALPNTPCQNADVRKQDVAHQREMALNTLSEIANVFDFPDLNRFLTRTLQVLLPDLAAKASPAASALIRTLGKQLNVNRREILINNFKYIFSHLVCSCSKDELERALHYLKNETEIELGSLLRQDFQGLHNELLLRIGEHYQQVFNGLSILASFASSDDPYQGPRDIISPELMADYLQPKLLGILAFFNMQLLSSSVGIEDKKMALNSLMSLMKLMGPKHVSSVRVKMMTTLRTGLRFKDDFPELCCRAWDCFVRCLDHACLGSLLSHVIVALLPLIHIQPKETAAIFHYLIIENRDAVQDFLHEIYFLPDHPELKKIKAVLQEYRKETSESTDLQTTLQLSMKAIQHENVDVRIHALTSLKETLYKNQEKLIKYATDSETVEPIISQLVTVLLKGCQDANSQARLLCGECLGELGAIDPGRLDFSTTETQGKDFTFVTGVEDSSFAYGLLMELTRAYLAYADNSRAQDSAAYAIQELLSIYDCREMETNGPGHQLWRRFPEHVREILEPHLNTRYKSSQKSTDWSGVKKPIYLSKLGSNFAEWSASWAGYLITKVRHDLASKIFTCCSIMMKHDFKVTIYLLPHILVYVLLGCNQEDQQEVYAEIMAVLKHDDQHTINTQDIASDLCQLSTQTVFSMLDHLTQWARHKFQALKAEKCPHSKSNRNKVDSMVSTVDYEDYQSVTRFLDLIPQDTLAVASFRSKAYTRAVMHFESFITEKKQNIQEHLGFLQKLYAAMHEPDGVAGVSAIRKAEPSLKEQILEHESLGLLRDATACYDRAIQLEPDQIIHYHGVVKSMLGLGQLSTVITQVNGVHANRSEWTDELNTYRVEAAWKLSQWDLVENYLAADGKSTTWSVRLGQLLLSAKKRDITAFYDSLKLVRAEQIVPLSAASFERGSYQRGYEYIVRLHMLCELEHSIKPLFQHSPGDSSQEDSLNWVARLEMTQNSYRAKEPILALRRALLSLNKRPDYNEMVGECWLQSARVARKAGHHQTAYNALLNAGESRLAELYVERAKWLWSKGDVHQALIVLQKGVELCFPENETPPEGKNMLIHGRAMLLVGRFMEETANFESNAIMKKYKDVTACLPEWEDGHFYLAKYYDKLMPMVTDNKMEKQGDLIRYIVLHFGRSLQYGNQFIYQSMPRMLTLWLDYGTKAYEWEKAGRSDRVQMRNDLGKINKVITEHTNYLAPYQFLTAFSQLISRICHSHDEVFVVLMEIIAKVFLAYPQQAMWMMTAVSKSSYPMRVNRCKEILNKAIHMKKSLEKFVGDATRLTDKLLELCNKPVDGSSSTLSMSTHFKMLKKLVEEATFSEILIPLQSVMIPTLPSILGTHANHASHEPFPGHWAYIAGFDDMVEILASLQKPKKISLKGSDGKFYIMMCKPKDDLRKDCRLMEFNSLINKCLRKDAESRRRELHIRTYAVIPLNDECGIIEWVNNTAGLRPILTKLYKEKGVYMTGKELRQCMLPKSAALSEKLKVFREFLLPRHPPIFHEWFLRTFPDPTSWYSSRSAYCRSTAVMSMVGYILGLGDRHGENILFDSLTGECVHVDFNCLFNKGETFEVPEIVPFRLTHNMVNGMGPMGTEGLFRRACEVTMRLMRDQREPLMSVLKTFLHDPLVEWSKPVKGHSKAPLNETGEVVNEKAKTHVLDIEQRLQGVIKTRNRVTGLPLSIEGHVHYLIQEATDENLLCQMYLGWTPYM

Row | Ki | Structure (SMILES) | also measured
1 | 1000 to 8000 nM | Cc1ccc2nc(-c3nc(/C=C/Cc4ccccc4)cnc3N)[nH]c2c1 | 
2 | 1000 to 8000 nM | Nc1ncc(O[C@@H]2CC[C@H](O)C2)nc1-c1nc2ccccc2[nH]1 (relative stereo) [II-35, cis-3-((5-Amino-6-(1H-benzo[d]imidazol-2-yl)pyrazin-2-yl)oxy)cyclopentanol] | 
3 | 500 to 1000 nM | Nc1ncc(O[C@@H]2CC[C@@H](O)C2)nc1-c1nc2ccccc2[nH]1 (relative stereo) [II-36, trans-3-((5-Amino-6-(1H-benzo[d]imidazol-2-yl)pyrazin-2-yl)oxy)cyclopentanol] | 
4 | 1000 to 8000 nM | Cc1ccc2nc(-c3nc(C(=O)NC(C)c4ccccc4)cnc3N)[nH]c2c1 (stereo in doubt) [II-57, 5-Amino-6-(6-methyl-1H-benzimidazol-2-yl)-N-[(1R)1-phenylethyl]pyrazine-2-carboxamide] | 
5 | ≤ 500 nM | Nc1ncc(Nc2ccccc2)nc1C(=O)Nc1ccccc1 [II-1, 3-Amino-6-anilino-N-phenyl-pyrazine-2-carboxamide] | 
6 | ≤ 500 nM | COc1ccccc1NC(=O)c1nc(Nc2ccccc2)cnc1N [II-3, 3-Amino-6-anilino-N-(2-methoxyphenyl)pyrazine-2-carboxamide] | 
7 | ≤ 500 nM | Nc1ncc(Nc2cccc(F)c2)nc1C(=O)Nc1ccccc1 [II-4, 3-Amino-6-(3-fluoroanilino)-N-phenyl-pyrazine-2-carboxamide] | 
8 | ≤ 500 nM | Nc1ncc(Nc2cccnc2)nc1C(=O)Nc1ccccc1 [II-5, 3-Amino-N-phenyl-6-(3-pyridylamino)pyrazine-2-carboxamide] | 
9 | ≤ 500 nM | Nc1ncc(Nc2ccncc2)nc1C(=O)Nc1ccccc1 [II-6, 3-Amino-N-phenyl-6-(4-pyridylamino)pyrazine-2-carboxamide] | 
10 | 500 to 1000 nM | Nc1ncc(Oc2ccccc2)nc1-c1nc2ccccc2[nH]1 [II-7, 3-(1H-Benzimidazol-2-yl)-5-phenoxy-pyrazin-2-amine] | 
11 | 500 to 1000 nM | Nc1ncc(Oc2cccc(Cl)c2)nc1-c1nc2ccccc2[nH]1 [II-8, 3-(1H-Benzimidazol-2-yl)-5-(3-chlorophenoxy)pyrazin-2-amine] | 
12 | 1000 to 8000 nM | CC(=O)Nc1cccc(Oc2cnc(N)c(-c3nc4ccccc4[nH]3)n2)c1 [II-9, N-[3-[5-Amino-6-(1H-benzimidazol-2-yl)pyrazin-2-yl]oxyphenyl]acetamide] | 
13 | ≤ 500 nM | N#Cc1cccc(Oc2cnc(N)c(-c3nc4ccccc4[nH]3)n2)c1 [II-10, 3-[5-Amino-6-(1H-benzimidazol-2-yl)pyrazin-2-yl]oxybenzonitrile] | 
14 |  | Cc1cccc(Oc2cnc(N)c(-c3nc4ccccc4[nH]3)n2)c1 [II-11, 3-(1H-Benzimidazol-2-yl)-5-(3-methylphenoxy)pyrazin-2-amine] | inhibition at 15 µM [1]: 15 to 24%
15 | 1000 to 8000 nM | Nc1ncc(Oc2cccnc2)nc1-c1nc2ccccc2[nH]1 [II-12, 3-(1H-Benzimidazol-2-yl)-5-(3-pyridyloxy)pyrazin-2-amine] | 
16 | 1000 to 8000 nM | CC(C)Oc1cnc(N)c(-c2nc3ccccc3[nH]2)n1 [II-13, 3-(1H-Benzimidazol-2-yl)-5-isopropoxy-pyrazin-2-amine] | 
17 | 1000 to 8000 nM | Nc1ncc(OCCO)nc1-c1nc2ccccc2[nH]1 [II-14, 2-[5-Amino-6-(1H-benzimidazol-2-yl)pyrazin-2-yl]oxyethanol] | 
18 | 500 to 1000 nM | COc1cccc(Oc2cnc(N)c(-c3nc4ccccc4[nH]3)n2)c1 [II-15, 3-(1H-Benzimidazol-2-yl)-5-(3-methoxyphenoxy)pyrazin-2-amine] | 
19 | ≤ 500 nM | COc1ccccc1NC(=O)c1nc(Oc2ccccc2)cnc1N [II-16, 3-Amino-N-(2-methoxyphenyl)-6-phenoxy-pyrazine-2-carboxamide] | 

Row | Ki | Structure (SMILES) | also measured
20 | 500 to 1000 nM | Nc1ncc(Oc2ccccc2)nc1C(=O)Nc1ccccc1 [II-17, 3-Amino-6-phenoxy-N-phenyl-pyrazine-2-carboxamide] | 
21 | 1000 to 8000 nM | CC(=O)Nc1ccc(Oc2cnc(N)c(-c3nc4ccc(C)cc4[nH]3)n2)cc1 [II-18, N-[4-[5-Amino-6-(6-methyl-1H-benzimidazol-2-yl)pyrazin-2-yl]oxyphenyl]acetamide] | 
22 |  | COc1ccc(Oc2cnc(N)c(-c3nc4ccc(C)cc4[nH]3)n2)cc1 [II-19, 5-(4-Methoxyphenoxy)-3-(6-methyl-1H-benzimidazol-2-yl)pyrazin-2-amine] | inhibition at 15 µM [1]: 25 to 45%
23 | 500 to 1000 nM | Cc1ccc2nc(-c3nc(Oc4ccccc4C#N)cnc3N)[nH]c2c1 [II-20, 2-[5-Amino-6-(6-methyl-1H-benzimidazol-2-yl)pyrazin-2-yl]oxybenzonitrile] | 
24 |  | Cc1ccc2nc(-c3nc(Oc4ccccc4Cl)cnc3N)[nH]c2c1 [II-21, 5-(2-Chlorophenoxy)-3-(6-methyl-1H-benzimidazol-2-yl)pyrazin-2-amine] | inhibition at 30 µM (at 30 uM compound, read-out: percent inhibition against ATR): 40 to 50%
25 | 1000 to 8000 nM | Cc1ccc2nc(-c3nc(Oc4c(F)cccc4F)cnc3N)[nH]c2c1 [II-22, 5-(2,6-Difluorophenoxy)-3-(6-methyl-1H-benzimidazol-2-yl)pyrazin-2-amine] | 
26 | 1000 to 8000 nM | Cc1ccc2nc(-c3nc(Oc4ccc(F)cc4)cnc3N)[nH]c2c1 [II-23, 5-(4-Fluorophenoxy)-3-(6-methyl-1H-benzimidazol-2-yl)pyrazin-2-amine] | 
27 | 1000 to 8000 nM | Cc1ccc2nc(-c3nc(Oc4ccc(O)cc4)cnc3N)[nH]c2c1 [II-24, 4-[5-Amino-6-(6-methyl-1H-benzimidazol-2-yl)pyrazin-2-yl]oxyphenol] | 
28 |  | COC(=O)c1ccc(Oc2cnc(N)c(-c3nc4ccc(C)cc4[nH]3)n2)cc1 [II-25, Methyl 4-[5-amino-6-(6-methyl-1H-benzimidazol-2-yl)pyrazin-2-yl]oxybenzoate] | inhibition at 15 µM [1]: 10%
29 | ≤ 500 nM | Cc1ccc2nc(-c3nc(Oc4ccc(C(=O)O)cc4)cnc3N)[nH]c2c1 [II-26, 4-[5-Amino-6-(6-methyl-1H-benzimidazol-2-yl)pyrazin-2-yl]oxybenzoic acid] | 
30 |  | Cc1ccc2nc(-c3nc(OCCN4CCCCC4)cnc3N)[nH]c2c1 [II-27, 3-(6-Methyl-1H-benzimidazol-2-yl)-5-[2-(1-piperidyl)ethoxy]pyrazin-2-amine] | inhibition at 15 µM [1]: 25 to 45%
31 |  | Cc1ccc2nc(-c3nc(Oc4cccc(Oc5ccccc5)c4)cnc3N)[nH]c2c1 [II-28, 3-(6-Methyl-1H-benzimidazol-2-yl)-5-(3-phenoxyphenoxy)pyrazin-2-amine] | inhibition at 60 µM (at 60 uM compound, read-out: percent inhibition of ATR): 10%
32 | 500 to 1000 nM | Cc1ccc2nc(-c3nc(Oc4cccnc4)cnc3N)[nH]c2c1 [II-29, 3-(6-Methyl-1H-benzimidazol-2-yl)-5-(3-pyridyloxy)pyrazin-2-amine] | 
33 | 1000 to 8000 nM | Cc1ccc2nc(-c3nc(Oc4ccccc4)cnc3N)[nH]c2c1 [II-30, 3-(6-Methyl-1H-benzimidazol-2-yl)-5-phenoxy-pyrazin-2-amine] | 
34 |  | Cc1ccc2nc(-c3nc(Oc4cccc(C#N)c4)cnc3N)[nH]c2c1 [II-31, 3-[5-Amino-6-(6-methyl-1H-benzimidazol-2-yl)pyrazin-2-yl]oxybenzonitrile] | inhibition at 15 µM [1]: 15 to 24%
35 | 500 to 1000 nM | Cc1ccc2nc(-c3nc(OC4CCOC4)cnc3N)[nH]c2c1 (stereo not shown) [II-32, 3-(6-Methyl-1H-benzimidazol-2-yl)-5-tetrahydrofuran-3-yloxy-pyrazin-2-amine] | 
36 | 1000 to 8000 nM | Cc1ccc2nc(-c3nc(OC4CCCN(C)C4)cnc3N)[nH]c2c1 (stereo not shown) [II-33, 3-(6-Methyl-1H-benzimidazol-2-yl)-5-[(1-methyl-3-piperidyl)oxy]pyrazin-2-amine] | 
37 | 1000 to 8000 nM | CC(=O)NCCOc1cnc(N)c(-c2nc3ccc(C)cc3[nH]2)n1 [II-34, N-[2-[5-Amino-6-(6-methyl-1H-benzimidazol-2-yl)pyrazin-2-yl]oxyethyl]acetamide] | 
